The values that follow come from ChEMBL document CHEMBL1123242, “Derivatives of 1-(1,3-benzodioxol-5-yl)-2-butanamine: representatives of a novel therapeutic class” (1986).

Type in all cases: functional
Assay [1] concerns Rattus norvegicus. The assay can be described thus: Compound was tested for hallucinogenic activity in rats at 5.52 dose(mg/kg); 1/2, highest dose tested.
Assay [2] deals with Rattus norvegicus. The assay can be described thus: Compound was tested for hallucinogenic activity in rats at the dose 0.34(mg/kg); Number of rats selecting the LSD lever/ number of rats responding (2/8).
The test system of assay [3] is Rattus norvegicus. The assay is described as follows: Compound was tested for hallucinogenic activity in rats at 1.72 dose (mg/kg); Number of rats selecting the LSD lever/ number of rats responding (2/9).
In assay [4] the test system is Rattus norvegicus. The assay can be described thus: Compound was tested for hallucinogenic activity in rats at dose 1.38 (mg/kg); 1/8.
Assay [5] deals with Rattus norvegicus. The assay can be described thus: Compound was tested for hallucinogenic activity in rats at 3.45 dose (mg/kg); Number of rats selecting the LSD lever/ number of rats responding (3/8).
Assay [6] deals with Rattus norvegicus. The assay is described as follows: Compound was tested for hallucinogenic activity in rats at the dose 0.17(mg/kg); Number of rats selecting the LSD lever/ number of rats responding (2/8).
Assay [7] concerns Rattus norvegicus. The assay is described as follows: Compound was tested for hallucinogenic activity in rats at 0.69 dose(mg/kg); Number of rats selecting the LSD lever/ number of rats responding (0/8).
In assay [8] the test system is Rattus norvegicus. The assay is described as follows: Compound was tested for hallucinogenic activity in rats at 4.14 dose (mg/kg); Number of rats selecting the LSD lever/ number of rats responding (2/8).
Assay [9] has as its system Rattus norvegicus. The assay is described as follows: Compound was tested for hallucinogenic activity in rats at 2.07 dose(mg/kg); Number of rats selecting the LSD lever/ number of rats responding (3/10).
The test system of assay [10] is Rattus norvegicus. The assay is described as follows: Compound was tested for hallucinogenic activity in rats at 2.76 dose(mg/kg); Number of rats selecting the LSD lever/ number of rats responding (4/8).
Assay [11] relates to Rattus norvegicus. The assay can be described thus: Compound was tested for hallucinogenic activity in rats at 2.41 dose(mg/kg); Number of rats selecting the LSD lever/ number of rats responding (3/8).

As to `CC[C@@H](N)Cc1ccc2c(c1)OCO2`, the Result with Rattus norvegicus [1] was 1; in the assay with Rattus norvegicus [2], 2; in the assay with Rattus norvegicus [3], 2; in the assay with Rattus norvegicus [4] it was 1; in the assay with Rattus norvegicus [5], 3; with Rattus norvegicus [6] it was 2. The Result in the assay with Rattus norvegicus [7] is listed as 0; with Rattus norvegicus [8] it was 2; in the assay with Rattus norvegicus [9] it was 3; with Rattus norvegicus [10] it was 4; with Rattus norvegicus [11], 3.
